Test results taken from ChEMBL document CHEMBL1681699 (Bioorg Med Chem, 2011).

Experiments:
[1] = system: Brain; test: Metabolic stability in Sprague-Dawley rat brain assessed as compound remaining retention time administered intravenously measured after 60 mins postinjection; format: ADME, organism-based; conditions: in vivo, iv, 1 h
[2] = Biodistribution in Sprague-Dawley rat hippocampus at 3.7 x 10^3 to 5.55 x 10'3 GBq, iv after 30 mins; format: ADME, organism-based; conditions: in vivo, 0.5 h
[3] = Biodistribution in Sprague-Dawley rat fat at 3.7 x 10^3 to 5.55 x 10'3 GBq, iv after 30 mins; format: ADME, organism-based, Adipose tissue; conditions: in vivo, 0.5 h
[4] = system: Brain; test: Biodistribution in Sprague-Dawley rat brain at 3.7 x 10^3 to 5.55 x 10'3 GBq, iv after 30 mins; format: ADME, organism-based; conditions: in vivo, 0.5 h
[5] = system: Cortex; test: Biodistribution in Sprague-Dawley rat cortex at 3.7 x 10^3 to 5.55 x 10^3 GBq, iv after 5 mins; format: ADME, organism-based; conditions: in vivo
[6] = system: Testes; test: Biodistribution in Sprague-Dawley rat testes at 3.7 x 10^3 to 5.55 x 10^3 GBq, iv after 5 mins; format: ADME, organism-based, Testis; conditions: in vivo
[7] = system: Liver; test: Biodistribution in Sprague-Dawley rat liver at 3.7 x 10^3 to 5.55 x 10^3 GBq, iv after 5 mins; format: ADME, organism-based; conditions: in vivo
[8] = system: Brain; test: Biodistribution in Sprague-Dawley rat brain at 3.7 x 10^3 to 5.55 x 10^3 GBq, iv after 5 mins; format: ADME, organism-based; conditions: in vivo
[9] = system: Brain; test: Metabolic stability in Sprague-Dawley rat brain assessed as 4-(1-Methyl-4-pyridin-4-yl-1H-pyrazol-3-yl)-phenol remaining after 2 mins; format: ADME, tissue-based
[10] = Metabolic stability in Sprague-Dawley rat plasma assessed as radioactive compound remaining after 40 mins; format: ADME, cell-free; conditions: read-out: Stability
[11] = system: Lung; test: Biodistribution in Sprague-Dawley rat lung at 3.7 x 10^3 to 5.55 x 10^3 GBq, iv after 60 mins; format: ADME, organism-based; conditions: in vivo, 1 h
[12] = system: Testes; test: Biodistribution in Sprague-Dawley rat testes at 3.7 x 10^3 to 5.55 x 10'3 GBq, iv after 30 mins; format: ADME, organism-based, Testis; conditions: in vivo, 0.5 h
[13] = Metabolic stability in Sprague-Dawley rat brain assessed as radioactive compound remaining after 60 mins; format: ADME, tissue-based; conditions: read-out: Stability
[14] = system: Striatum; test: Biodistribution in Sprague-Dawley rat striatum at 3.7 x 10^3 to 5.55 x 10^3 GBq, iv after 60 mins; format: ADME, organism-based; conditions: in vivo, 1 h
[15] = system: Plasma; test: Metabolic stability in Sprague-Dawley rat plasma assessed as 4-(1-Methyl-4-pyridin-4-yl-1H-pyrazol-3-yl)-phenol remaining retention time administered intravenously measured after 60 mins postinjection; format: ADME, organism-based; conditions: in vivo, iv
[16] = Biodistribution in Sprague-Dawley rat fat at 3.7 x 10^3 to 5.55 x 10^3 GBq, iv after 60 mins; format: ADME, organism-based, Adipose tissue; conditions: in vivo, 1 h
[17] = Biodistribution in Sprague-Dawley rat fat at 3.7 x 10^3 to 5.55 x 10^3 GBq, iv after 5 mins; format: ADME, organism-based, Adipose tissue; conditions: in vivo
[18] = Metabolic stability in Sprague-Dawley rat brain assessed as radioactive compound remaining after 2 mins; format: ADME, tissue-based; conditions: read-out: Stability
[19] = system: Lung; test: Biodistribution in Sprague-Dawley rat lung at 3.7 x 10^3 to 5.55 x 10^3 GBq, iv after 5 mins; format: ADME, organism-based; conditions: in vivo
[20] = system: Testes; test: Biodistribution in Sprague-Dawley rat testes at 3.7 x 10^3 to 5.55 x 10^3 GBq, iv after 60 mins; format: ADME, organism-based, Testis; conditions: in vivo, 1 h
[21] = system: Plasma; test: Metabolic stability in Sprague-Dawley rat plasma assessed as compound remaining retention time administered intravenously measured after 60 mins postinjection; format: ADME, organism-based; conditions: in vivo, iv, 1 h
[22] = system: Cerebellum; test: Biodistribution in Sprague-Dawley rat cerebellum at 3.7 x 10'3 to 5.55 x 10^3 GBq, iv after 60 mins; format: ADME, organism-based; conditions: in vivo, 1 h
[23] = system: Plasma; test: Metabolic stability in Sprague-Dawley rat plasma assessed as 4-(1-Methyl-4-pyridin-4-yl-1H-pyrazol-3-yl)-phenol remaining after 2 mins; format: ADME, cell-free
[24] = system: Kidney; test: Biodistribution in Sprague-Dawley rat kidney at 3.7 x 10^3 to 5.55 x 10^3 GBq, iv after 60 mins; format: ADME, organism-based; conditions: in vivo, 1 h
[25] = system: Muscle tissue; test: Biodistribution in Sprague-Dawley rat muscle at 3.7 x 10^3 to 5.55 x 10^3 GBq, iv after 5 mins; format: ADME, organism-based; conditions: in vivo
[26] = system: Liver; test: Biodistribution in Sprague-Dawley rat liver at 3.7 x 10^3 to 5.55 x 10^3 GBq, iv after 60 mins; format: ADME, organism-based; conditions: in vivo, 1 h
[27] = system: Kidney; test: Biodistribution in Sprague-Dawley rat kidney at 3.7 x 10^3 to 5.55 x 10'3 GBq, iv after 30 mins; format: ADME, organism-based; conditions: in vivo, 0.5 h
[28] = system: Brain; test: Metabolic stability in Sprague-Dawley rat brain assessed as 4-(1-Methyl-4-pyridin-4-yl-1H-pyrazol-3-yl)-phenol remaining after 20 mins; format: ADME, tissue-based
[29] = system: Heart; test: Biodistribution in Sprague-Dawley rat heart at 3.7 x 10^3 to 5.55 x 10^3 GBq, iv after 60 mins; format: ADME, organism-based; conditions: in vivo, 1 h
[30] = system: Brain; test: Metabolic stability in Sprague-Dawley rat brain assessed as 4-(1-Methyl-4-pyridin-4-yl-1H-pyrazol-3-yl)-phenol remaining retention time administered intravenously measured after 60 mins postinjection; format: ADME, organism-based; conditions: in vivo, iv
[31] = system: Liver; test: Biodistribution in Sprague-Dawley rat liver at 3.7 x 10^3 to 5.55 x 10'3 GBq, iv after 30 mins; format: ADME, organism-based; conditions: in vivo, 0.5 h
[32] = system: Muscle tissue; test: Biodistribution in Sprague-Dawley rat muscle at 3.7 x 10^3 to 5.55 x 10^3 GBq, iv after 60 mins; format: ADME, organism-based; conditions: in vivo, 1 h
[33] = system: Cerebellum; test: Biodistribution in Sprague-Dawley rat cerebellum at 3.7 x 10'3 to 5.55 x 10^3 GBq, iv after 5 mins; format: ADME, organism-based; conditions: in vivo
[34] = system: Plasma; test: Metabolic stability in Sprague-Dawley rat plasma assessed as 4-(1-Methyl-4-pyridin-4-yl-1H-pyrazol-3-yl)-phenol remaining after 60 mins; format: ADME, cell-free
[35] = system: Heart; test: Biodistribution in Sprague-Dawley rat heart at 3.7 x 10^3 to 5.55 x 10'3 GBq, iv after 30 mins; format: ADME, organism-based; conditions: in vivo, 0.5 h
[36] = system: Brain; test: Metabolic stability in Sprague-Dawley rat brain assessed as 4-(1-Methyl-4-pyridin-4-yl-1H-pyrazol-3-yl)-phenol remaining after 40 mins; format: ADME, tissue-based
[37] = system: Striatum; test: Biodistribution in Sprague-Dawley rat striatum at 3.7 x 10^3 to 5.55 x 10'3 GBq, iv after 30 mins; format: ADME, organism-based; conditions: in vivo, 0.5 h
[38] = system: Plasma; test: Metabolic stability in Sprague-Dawley rat plasma assessed as 4-(1-Methyl-4-pyridin-4-yl-1H-pyrazol-3-yl)-phenol remaining after 20 mins; format: ADME, cell-free
[39] = system: Blood; test: Biodistribution in Sprague-Dawley rat blood at 3.7 x 10^3 to 5.55 x 10^3 GBq, iv after 5 mins; format: ADME, organism-based; conditions: in vivo
[40] = Metabolic stability in Sprague-Dawley rat plasma assessed as radioactive compound remaining after 60 mins; format: ADME, cell-free; conditions: read-out: Stability
[41] = system: Blood; test: Biodistribution in Sprague-Dawley rat blood at 3.7 x 10^3 to 5.55 x 10'3 GBq, iv after 30 mins; format: ADME, organism-based; conditions: in vivo, 0.5 h
[42] = Metabolic stability in Sprague-Dawley rat plasma assessed as radioactive compound remaining after 2 mins; format: ADME, cell-free; conditions: read-out: Stability
[43] = Metabolic stability in Sprague-Dawley rat plasma assessed as radioactive compound remaining after 20 mins; format: ADME, cell-free; conditions: read-out: Stability
[44] = system: Heart; test: Biodistribution in Sprague-Dawley rat heart at 3.7 x 10^3 to 5.55 x 10^3 GBq, iv after 5 mins; format: ADME, organism-based; conditions: in vivo
[45] = Biodistribution in Sprague-Dawley rat hippocampus at 3.7 x 10^3 to 5.55 x 10^3 GBq, iv after 60 mins; format: ADME, organism-based; conditions: in vivo, 1 h
[46] = system: Brain; test: Biodistribution in Sprague-Dawley rat brain at 3.7 x 10^3 to 5.55 x 10^3 GBq, iv after 60 mins; format: ADME, organism-based; conditions: in vivo, 1 h
[47] = system: Blood; test: Biodistribution in Sprague-Dawley rat blood at 3.7 x 10^3 to 5.55 x 10^3 GBq, iv after 60 mins; format: ADME, organism-based; conditions: in vivo, 1 h
[48] = system: Cortex; test: Biodistribution in Sprague-Dawley rat cortex at 3.7 x 10^3 to 5.55 x 10^3 GBq, iv after 60 mins; format: ADME, organism-based; conditions: in vivo, 1 h
[49] = system: Muscle tissue; test: Biodistribution in Sprague-Dawley rat muscle at 3.7 x 10^3 to 5.55 x 10'3 GBq, iv after 30 mins; format: ADME, organism-based; conditions: in vivo, 0.5 h
[50] = Metabolic stability in Sprague-Dawley rat brain assessed as radioactive compound remaining after 40 mins; format: ADME, tissue-based; conditions: read-out: Stability
[51] = Metabolic stability in Sprague-Dawley rat brain assessed as radioactive compound remaining after 20 mins; format: ADME, tissue-based; conditions: read-out: Stability
[52] = system: Brain; test: Metabolic stability in Sprague-Dawley rat brain assessed as 4-(1-Methyl-4-pyridin-4-yl-1H-pyrazol-3-yl)-phenol remaining after 60 mins; format: ADME, tissue-based
[53] = system: Cerebellum; test: Biodistribution in Sprague-Dawley rat cerebellum at 3.7 x 10'3 to 5.55 x 10'3 GBq, iv after 30 mins; format: ADME, organism-based; conditions: in vivo, 0.5 h
[54] = Biodistribution in Sprague-Dawley rat hippocampus at 3.7 x 10^3 to 5.55 x 10^3 GBq, iv after 5 mins; format: ADME, organism-based; conditions: in vivo
[55] = system: Kidney; test: Biodistribution in Sprague-Dawley rat kidney at 3.7 x 10^3 to 5.55 x 10^3 GBq, iv after 5 mins; format: ADME, organism-based; conditions: in vivo
[56] = system: Plasma; test: Metabolic stability in Sprague-Dawley rat plasma assessed as 4-(1-Methyl-4-pyridin-4-yl-1H-pyrazol-3-yl)-phenol remaining after 40 mins; format: ADME, cell-free
[57] = system: Striatum; test: Biodistribution in Sprague-Dawley rat striatum at 3.7 x 10^3 to 5.55 x 10^3 GBq, iv after 5 mins; format: ADME, organism-based; conditions: in vivo
[58] = system: Lung; test: Biodistribution in Sprague-Dawley rat lung at 3.7 x 10^3 to 5.55 x 10'3 GBq, iv after 30 mins; format: ADME, organism-based; conditions: in vivo, 0.5 h
[59] = system: Cortex; test: Biodistribution in Sprague-Dawley rat cortex at 3.7 x 10^3 to 5.55 x 10'3 GBq, iv after 30 mins; format: ADME, organism-based; conditions: in vivo, 0.5 h

Time [1]: 10.5 min
Drug uptake [2]: 0.05 % ID/g
Drug uptake [3]: 0.075 % ID/g
Drug uptake [4]: 0.066 % ID/g
Drug uptake [5]: 0.133 % ID/g
Drug uptake [6]: 0.16 % ID/g
Drug uptake [7]: 2.766 % ID/g
Drug uptake [8]: 0.162 % ID/g
Activity [9]: 1.03%
remaining at 40 min [10]: 52.6%
Drug uptake [11]: 0.09 % ID/g
Drug uptake [12]: 0.098 % ID/g
remaining at 1 h [13]: 78.6%
Drug uptake [14]: 0.164 % ID/g
Time [15]: 3 min
Drug uptake [16]: 0.1 % ID/g
Drug uptake [17]: 0.124 % ID/g
remaining at 2 min [18]: 98.7%
Drug uptake [19]: 0.317 % ID/g
Drug uptake [20]: 0.068 % ID/g
Time [21]: 3 min
Drug uptake [22]: 0.035 % ID/g
Activity [23]: 1.23%
Drug uptake [24]: 0.314 % ID/g
Drug uptake [25]: 0.093 % ID/g
Drug uptake [26]: 3.364 % ID/g
Drug uptake [27]: 0.366 % ID/g
Activity [28]: 3.45%
Drug uptake [29]: 0.068 % ID/g
Time [30]: 10.5 min
Drug uptake [31]: 3.395 % ID/g
Drug uptake [32]: 0.039 % ID/g
Drug uptake [33]: 0.133 % ID/g
Activity [34]: 40.72%
Drug uptake [35]: 0.102 % ID/g
Activity [36]: 11.47%
Drug uptake [37]: 0.236 % ID/g
Activity [38]: 19.13%
Drug uptake [39]: 0.123 % ID/g
remaining at 1 h [40]: 49.3%
Drug uptake [41]: 0.065 % ID/g
remaining at 2 min [42]: 98.3%
remaining at 20 min [43]: 74.2%
Drug uptake [44]: 0.264 % ID/g
Drug uptake [45]: 0.051 % ID/g
Drug uptake [46]: 0.056 % ID/g
Drug uptake [47]: 0.047 % ID/g
Drug uptake [48]: 0.044 % ID/g
Drug uptake [49]: 0.059 % ID/g
remaining at 40 min [50]: 84.7%
remaining at 20 min [51]: 94.8%
Activity [52]: 15.87%
Drug uptake [53]: 0.036 % ID/g
Drug uptake [54]: 0.169 % ID/g
Drug uptake [55]: 1.229 % ID/g
Activity [56]: 35.19%
Drug uptake [57]: 0.3 % ID/g
Drug uptake [58]: 0.155 % ID/g
Drug uptake [59]: 0.044 % ID/g
Structure (SMILES): [11CH3]n1cc(-c2ccncc2)c(-c2ccc(OCc3ccc4ccccc4n3)cc2)n1
